Experimental findings from patent US12668803B2, “Glypican-3-specific modified aptamer and use thereof” (APTAMER SCIENCES INC., priority 2019, dated 2026) are described below.

Type in all cases: cell-based
One data set relates to Hep3B. Briefly: Cellular internalization of chemically optimized aptamers (FIG. 17A). The note with it: combi 1 to combi 5, FIG. 17A.
The next data set concerns HepG2 cell. Briefly: Cell binding analysis of chemically optimized aptamers. The conditions noted are these: combi 1 to combi 5, FIG. 16. As to the method:
[The source words this procedure for another cell line and reports this cell line under the same test.] The 12-10 aptamer and 5 aptamer libraries prepared by truncating the 12-10 aptamer at various lengths [12-10 (40-mer), 12-12 (35-mer), 12-11 (29-mer), 12-13 (24-mer), 12-14 (23-mer), 12-15 (18-mer)] were subjected to cell binding analysis. Each aptamer sequence was labeled with Cy5 at the 5′ end thereof according to the method of Example 1-1. Huh 7 cells (ATCC, Rockville, MD, USA) were seeded at a density of 2×10^6/mL in a 100 mm^2 culture plate, and cultured using a DMEM medium (Gibco, Grand Island, NY, USA) containing 10% FBS (Gibco, Grand Island, NY, USA) and 1% antibiotics (penicillin/streptomycin) under conditions of 5% CO2 and 37° C. […] was mixed with 5×SB18 buffer to prepare the aptamer at a concentration of 4 μM, and heated at 95° C. for 5 min, and then cooled at room temperature for 15 min or more. 4 μM of the aptamer was diluted with KRPH buffer (20 mM HEPES, 5 mM KH2PO4, 1 mM MgSO4, 1 mM CaCl2, 136 mM NaCl, 4.7 mM KCl, pH 7.4) at a concentration of 25 nM. The culture medium was removed from the cultured cells, and 4 mL of phosphate-buffered saline (PBS) was added thereto, followed by washing, and then 4 mL of PBS was removed. […] The cells were divided and added to fluorescence-activated cell sorting (FAC) tubes according to the number of samples, followed by centrifugation at 4° C. and 2000 rpm for 4 min. […] Cy5 was measured at […]. […]

The subject of data set [1] is GPC3-expressing hepatoma cells. Briefly: Cell-killing effect (CCK-8) of gemcitabine-bound combi aptamers. The conditions noted are these: FIG. 23 and FIG. 24. The protocol:
In detail, Huh-7 cells (ATCC, Rockville, MD, USA) were seeded in a 96-well plate at a density of 1×10^4/mL, and cultured using a DMEM (Gibco, Grand Island, NY, USA) medium containing 10% FBS (Gibco, Grand Island, NY, USA) and 1% antibiotics (penicillin/streptomycin) under conditions of 5% CO2 and 37° C. Next day, the aptamer stock (100 μM) was mixed with 5×SB18 buffer to prepare the stock at a concentration of 80 μM, and heated at 95° C. for 5 min, and then cooled at room temperature for 15 min or more. The medium was removed from the cultured cells, and 100 μL of a serum-free medium was added thereto, and cultured under conditions of 37° C. and 5% CO2 for 1 hr. The serum-free medium was removed, and then the cells were washed with 100 μL of 1×PBS. 100 μL of KRPH buffer was added, and cultured under conditions of 37° C. and 5% CO2 for 1 hr. The aptamer was diluted with KRPH buffer to 2-fold of the desired concentration, and added to a 96-well plate at 1× concentration, and cultured under conditions of 37° C. and 5% CO2 for 4 hr. After treatment with the aptamer, the KRPH buffer was removed, and then 100 μL of culture medium was added and cultured under conditions of 37° C. and 5% CO2 for […]. 6 days later, 10 μL of a kit solution of CCK-8 (Cell Counting Kit-8) was added to each well, and then cultured under conditions of 37° C. and 5% CO2 for 3 hr. Cell death levels were examined at […] using a microplate reader.

The subject of a further data set is Huh 7 cells. The data set is described as follows: Cell binding analysis of Cy5-labeled aptamers (FACS). The conditions noted are these: three vs five gemcitabines bound, method of Example 2-1, FIG. 19. The protocol:
The 12-10 aptamer and 5 aptamer libraries prepared by truncating the 12-10 aptamer at various lengths [12-10 (40-mer), 12-12 (35-mer), 12-11 (29-mer), 12-13 (24-mer), 12-14 (23-mer), 12-15 (18-mer)] were subjected to cell binding analysis. Each aptamer sequence was labeled with Cy5 at the 5′ end thereof according to the method of Example 1-1. Huh 7 cells (ATCC, Rockville, MD, USA) were seeded at a density of 2×10^6/mL in a 100 mm^2 culture plate, and cultured using a DMEM medium (Gibco, Grand Island, NY, USA) containing 10% FBS (Gibco, Grand Island, NY, USA) and 1% antibiotics (penicillin/streptomycin) under conditions of 5% CO2 and 37° C. 5 μM of the aptamer stock was mixed with 5×SB18 buffer to prepare the aptamer at a concentration of 4 μM, and heated at 95° C. for 5 min, and then cooled at room temperature for 15 min or more. 4 μM of the aptamer was diluted with KRPH buffer (20 mM HEPES, 5 mM KH2PO4, 1 mM MgSO4, 1 mM CaCl2, 136 mM NaCl, 4.7 mM KCl, pH 7.4) at a concentration of 25 nM. The culture medium was removed from the cultured cells, and 4 mL of phosphate-buffered saline (PBS) was added thereto, followed by washing, and then 4 mL of PBS was removed. 4 mL of cold PBS or warm PBS was added, and cells were scraped using a scraper, and collected in tubes, followed by pipetting. The cells were divided and added to fluorescence-activated cell sorting (FAC) tubes according to the number of samples, followed by centrifugation at 4° C. and 2000 rpm for 4 min. After removing the supernatant, each 500 μL of 25 nM aptamer and control (31-08 (40-mer) aptamer) were added to […] of KRPH buffer, followed by pipetting. The tube was covered with foil to block the light, followed by incubation at 4° C. for 30 min. After incubation, centrifugation was performed at 4° C. and 2000 rpm for 4 min, and the supernatant was removed. 2 mL of cold 1×PBS was added, washed, centrifuged at 4° C. and 2000 rpm for 4 min, and the supernatant was removed. This process was repeated three times. […] Cy5 was measured at […]. […]

In data set [2] the test system is hepatoma cells (Hep3B, HepG2). The data set is described as follows: Cell cycle analysis (propidium iodide, FACS). The conditions noted are these: 4 hr treatment, FIGS. 25 and 26. As to the method:
(§1) To analyze the effects of combi 4 and combi 5 bound with three or five gemcitabines on the cell cycle of hepatoma cells, cell cycle analysis was performed. In detail, Hep3B, HepG2, and A431 cells were seeded in a 6-well plate at a density of 1×10^6/ml, and cultured using a DMEM medium containing 10% FBS and 1% antibiotics (penicillin/streptomycin) under conditions of 5% CO2 and 37° C., respectively. Next day, 100 μM of the modified aptamer stock was mixed with 5×SB18 buffer to prepare the aptamer at a concentration of 80 μM, and heated at 95° C. for 5 min, and then cooled at room temperature for 15 min or more. The medium was removed from the cultured cells, and replaced by a serum-free medium, and cultured under conditions of 37° C. and 5% CO2 for 1 hr. The serum-free medium was removed, and then the cells were washed with 2 ml of 1×PBS. 2 ml of KRPH buffer was added, and cultured under conditions of 37° C. and 5% CO2 for 1 hr. The aptamer was added, and cultured under conditions of 37° C. and 5% CO2 for 4 hr. The KRPH buffer was removed, and 2 ml of 1×PBS was added thereto to perform washing, and then PBS was removed. 2 ml of 1×PBS was added, and cells were scraped using a scraper, and collected in FACs tubes, followed by centrifugation at 4° C. and 2000 rpm for 4 minutes. 1/500-fold diluted RNAase A and propidium iodide diluted with PBS at a concentration of 50 μg/ml were added to the FACs tubes at a volume of 500 μL, followed by pipetting. Incubation was performed at room temperature for 30 min while blocking the light, and then cell cycle was measured.

For data set [3], the system named is squamous cell carcinoma cells (A431). The data set is described as follows: Cell cycle analysis (propidium iodide, FACS). The conditions noted are these: 4 hr treatment, FIG. 27. As to the method:
as §1

The next data set deals with HepG2. The data set is described as follows: Cellular internalization of gemcitabine-bound chemically optimized aptamers. The conditions noted are these: analysis in HepG2 and A431 cells, FIGS. 20 to 22. As to the method:
[The source words this procedure for another cell line and reports this cell line under the same test.] 5 aptamer libraries prepared by truncating the 12-10 aptamer at various lengths [12-12 (35-mer), 12-11 (29-mer), 12-13 (24-mer), 12-14 (23-mer), and 12-15 (18-mer)] were subjected to cellular internalization analysis. In detail, a 6-well plate was prepared, and a round cover glass was placed in the 6-well plate. Huh-7 cells were cultured in the 6-well plate according to the method of Example 1-3. 5 μM of the aptamer stock was mixed with 5×SB18 buffer to prepare the aptamer at a concentration of 4 μM, and heated at 95° C. for 5 min, and then cooled at room temperature for 15 min or more. The next day, the medium was removed from the cultured cells, and a serum-free medium was added thereto, and cultured under conditions of 37° C. and 5% CO2 for 1 hr. The serum-free medium was removed, and then the cells were washed with 2 mL of 1×PBS. KRPH buffer was added, and cultured under conditions of 37° C. and 5% CO2 for 1 hr. 4 μM aptamer was diluted to 25 nM, and then cultured under conditions of 37° C. and 5% CO2 for 1 hr or 4 hr. Washing was repeated three times with 2 mL of 1×PBS. Washing was performed in a shaker at room temperature for 10 min while blocking the light. Thereafter, the cells were fixed by treatment with 4% paraformaldehyde at 4° C. for 10 min. Washing was repeated three times with 2 mL of 1×PBS. […]

For the substance “Combi 5: SEQ ID NO: 14, chemically optimized 12-12 aptamer (G_{Me}nG_{Me}A_{F}A_{F}nGCGnnG_{F}A_{F}A_{Me}nnA_{Me}nWYC_{F}C_{F}C_{F}nnCAG_{Me}nCAnC_{F}A_{Me}C_{F}; 2'-F and 2'-OMe units, modified bases n, W, Y undefined, 3' idT, as printed in the source, key not given here)”, the Hep3B cellular internalization result in the data set on Hep3B was “highest”. Moreover, in the data set with HepG2 cell, the HepG2 cell binding entry is “most similar to that of 12-12”.
Take “Combi 4 G(3) (DNA GNGAANGCGNNGAANNANGYSSSNNCAGNCANCAC; gemcitabines, 2'-OMe, 2'-F, BzdU, 3' idT; Combi 4 G(3); (1)..(1) G is 2-O-Methoxy-DNA.; (2)..(2) n is BzdU.; (3)..(3) G is 2-O-Methoxy-DNA.; (4)..(4) A is 2-Fluorine-DNA.; (5)..(5) A is 2-Fluorine-DNA.; (6)..(6) n is BzdU.; (10)..(10) n is BzdU.; (11)..(11) n is BzdU.; (12)..(12) G is 2-Fluorine-DNA.; (13)..(13) A is 2-Fluorine-DNA.; (14)..(14) A is 2-Fluorine-DNA.; (15)..(15) n is BzdU.; (16)..(16) n is BzdU.; (17)..(17) A is 2-Fluorine-)”: in data set [1], the “concentration from which a cell-killing effect is shown” value was determined as 100 nM. In addition, the cell binding ability entry in the data set with Huh 7 cells is on record as “excellent cell binding ability”. Also, the cell cycle arrest result is “arrested hepatoma cells at the G1/S phase” in data set [2] and “no cell cycle arrest” in data set [3]. For the same substance, the cellular internalization entry with HepG2 was “excellent cellular internalization”.
